Results: US9850272B2, “Therapeutically active estratrienthiazole derivatives as inhibitors of 17.beta-hydroxy-steroid dehydrogenase, type 1” (FORENDO PHARMA LTD, priority 2013, dated 2017)
Structures can show the parent of a compound that is named as a salt. Where two headings read alike, the source gives them in different places.

What was measured:
[1] = target: T1, Recombinant Human 17β-HSD1 (Homo sapiens, UniProt P14061); assay: Inhibition of recombinant human 17β-HSD1 (conversion of 3H-estrone to estradiol, HPLC); assay type: biochemical; details: read-out: 17β-HDS1 Inhibition % at 1 μM
T1 construct: made in house; host or cells: Sd9 (Sf9) insect cells, baculovirus (Bac to Bac Expression System)
T1 sequence (P14061 1-328): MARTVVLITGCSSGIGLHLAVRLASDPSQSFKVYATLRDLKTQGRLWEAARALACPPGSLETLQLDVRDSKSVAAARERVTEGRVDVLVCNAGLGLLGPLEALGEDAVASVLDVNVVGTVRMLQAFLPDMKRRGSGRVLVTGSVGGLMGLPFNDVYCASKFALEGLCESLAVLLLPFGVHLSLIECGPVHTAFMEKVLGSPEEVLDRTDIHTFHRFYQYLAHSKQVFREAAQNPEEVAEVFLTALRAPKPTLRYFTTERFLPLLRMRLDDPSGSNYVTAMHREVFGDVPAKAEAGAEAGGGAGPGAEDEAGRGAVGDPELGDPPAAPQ
Description: 17β-HSD1 Production and Isolation:
Recombinant baculovirus was generated by the “Bac to Bac Expression System” (Invitrogen). Recombinant bacmid was transfected to Sd9 insect cells using “Cellfectin Reagent” (Invitrogen). 60 h later cells were harvested; the microsomal fraction was isolated as described by Puranen, T. J., Poutanen, M. H., Peltoketo, H. E., Vihko, P. T. and Vihko, R. K. (1994) Site-directed mutagenesis of the putative active site of human 17 β-hydroxysteroid dehydrogenase type 1. Biochem. J. 304: 289-293. Aliquots were stored frozen until determination of enzymatic activity.
Assay—Inhibition of Recombinant Human 17β-HSD1:
Recombinant protein (1 μg/ml) was incubated in 20 mM KH2PO4 pH 7.4 with 30 nM estrone (including 800.000 cpm/ml of ^3H-estrone) and 1 mM NADPH for 30 min at RT, in the presence of the potential inhibitor at concentrations 1 μM or 0.1 μM. Inhibitor stock solutions were prepared in DMSO. Final concentration of DMSO was adjusted to 1% in all samples. The enzyme reaction was stopped by addition of 10% trichloroacetic acid (final concentration). Samples were centrifuged in a microtiter plate at 4000 rpm for 10 min. Supernatants were applied to reverse phase HPLC on a Waters Symmetry C18 column, equipped with a Waters Sentry Guard column. Isocratic HPLC runs were performed at RT at a flow rate of 1 ml/min in acetonitrile:water 48:52 as running solvent. Radioactivity was monitored in the eluate by a Packard Flow Scintillation Analyzer. Total radioactivity for estrone and estradiol were determined in each sample and percent conversion of estrone to estradiol was calculated according to the following formula:
(§1) Percent inhibition was calculated flowingly: % inhibition=100−% conversion

[2] = target: T2, Recombinant Human 17β-HSD2 (Homo sapiens, UniProt P37059); assay: Inhibition of recombinant human 17β-HSD2 (conversion of 3H-estradiol to estrone, HPLC); assay type: biochemical; details: read-out: 17β-HSD2 Inhibition % at 1 μM
T2 construct: made in house; host or cells: Sd9 (Sf9) insect cells, baculovirus (Bac to Bac Expression System)
T2 sequence (P37059 1-387): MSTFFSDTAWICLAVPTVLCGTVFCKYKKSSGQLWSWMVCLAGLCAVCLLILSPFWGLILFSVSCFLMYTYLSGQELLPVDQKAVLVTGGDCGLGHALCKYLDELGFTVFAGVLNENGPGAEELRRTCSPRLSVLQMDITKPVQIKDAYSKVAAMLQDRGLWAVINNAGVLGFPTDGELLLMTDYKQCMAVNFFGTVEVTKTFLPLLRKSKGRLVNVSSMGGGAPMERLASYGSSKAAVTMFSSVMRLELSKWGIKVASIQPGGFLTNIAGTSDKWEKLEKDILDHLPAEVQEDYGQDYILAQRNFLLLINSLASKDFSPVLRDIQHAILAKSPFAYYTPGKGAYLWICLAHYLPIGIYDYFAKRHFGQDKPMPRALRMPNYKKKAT
Description: 17β-HSD2 Production and Isolation:
Similarly to 17β-HSD1 the Recombinant baculovirus was generated by the “Bac to Bac Expression System” (Invitrogen). Recombinant bacmid was transfected to Sd9 insect cells using “Cellfectin Reagent” (Invitrogen). 60 h later cells were harvested and supernatant were fractionated by the following protocol: • cells were dissolved into 40 ml of A-buffer (40 mM TRIS, pH8.0, 20% glycerol, 20 μM NAD, 0.4 mM PMSF, 150 mM NaCl, 0.5% dodecyl-β-maltoside+protease inhibitor cocktail) • cells were sonicated • lysate was incubated on ice for 15 min • lysate was centrifuged 5000 rpm 15 min, +4° C. • centrifugation of the supernatant 180.000 g 30 min, +4° C. • pellet was dissolved into 8 ml of A-buffer • not resuspended material was removed by centrifugation 5000 rpm 15 min, +4° C. • the clear supernatant was divided into 100 μl aliquots and were stored frozen until determination of enzymatic activity.
The amount of 17β-HSD2 was analysed by immunoblotting and total protein concentration of each extract batch was determined.
Assay—Inhibition of Recombinant Human 17β-HSD2:
Recombinant protein (4 μg/ml) was incubated in 20 mM KH2PO4 pH 8.5 with 50 nM estradiol (including 800.000 cpm/ml of ^3H-estradiol) and 1 mM NADH for 30 min at RT, in the presence of the potential inhibitor at concentrations 1 μM or 0.1 μM. Inhibitor stock solutions were prepared in DMSO. Final concentration of DMSO was adjusted to 1% in all samples. The enzyme reaction was stopped by addition of 10% trichloroacetic acid (final concentration). Samples were centrifuged in a microtiter plate at 4000 rpm for 10 min. Supernatants were applied to reverse phase HPLC on a Waters Symmetry C18 column, equipped with a Waters Sentry Guard column. Isocratic HPLC runs were performed at RT at a flow rate of 1 ml/min in acetonitrile:water 48:52 as running solvent. Radioactivity was monitored in the eluate by a Packard Flow Scintillation Analyzer. Total radioactivity for estrone and estradiol were determined in each sample and percent conversion of estradiol to estrone was calculated according to the following formula:
as §1

[3] = inhibitor at 1 μM, 30 nM estrone, 1 mM NADPH, 30 min at RT
[4] = inhibitor at 1 μM, 50 nM estradiol, 1 mM NADH, 30 min at RT

SMILES	inhibition at 1 µM [1, 3] [%]	inhibition at 1 µM [2, 4] [%]	inhibition at 1 µM [1] [%]	inhibition at 1 µM [2] [%]
Cc1cnc(NC(=O)CC[C@@H]2C[C@H](O)[C@@]3(C)CCC4c5ccc(O)cc5CCC4C23)s1 (stereo partly drawn) [Compound 1, 3-((13S,15R,17S)-3,17-Dihydroxy-13-methyl-7,8,9,11,12,13,14,15,16,17decahydro-6H-cyclopenta[a]phenanthren-15-yl)-N-(5-methylthiazol-2-yl)propanamide]	98	48	–	–
COc1ccc2c(c1)CCC1C2CC[C@@]2(C)C1[C@H](CCC(=O)Nc1ncc(C)s1)C[C@@H]2O (stereo partly drawn) [Compound 6, 3-((13S,15R,17S)-17-Hydroxy-3-methoxy-13-methyl-7,8,9,11,12,13,14,15,16,17-decahydro-6H-cyclopenta[a]phenanthren-15-yl)-N-(5-methylthiazol-2-yl)propanamide]	58	3	–	–
Cc1cnc(NC(=O)CC[C@@H]2C[C@@](O)(C#N)[C@@]3(C)CCC4c5ccc(O)cc5CCC4C23)s1 (stereo partly drawn) [Compound 21, 3-((13S,15R,17S)-17-cyano-3,17-dihydroxy-13-methyl-7,8,9,11,12,13,14,15,16,17-decahydro-6H-cyclopenta[a]phenanthren-15-yl)-N-(5-methylthiazol-2-yl)propanamide]	76	6	–	–
CC(=O)Oc1ccc2c(c1)CCC1C2CC[C@@]2(C)C1[C@H](CCC(=O)Nc1ncc(C)s1)C[C@@]2(O)C#N (stereo partly drawn) [Compound 22, (13S,15R,17S)-17-cyano-17-hydroxy-13-methyl-15-(3-((5-methylthiazol-2-yl)amino)-3-oxopropyl)-7,8,9,11,12,13,14,15,16,17-decahydro-6H-cyclopenta[a]phenanthren-3-yl acetate]	71	1	–	–
COc1ccc2c(c1)CCC1C2CC[C@@]2(C)C1[C@H](CCC(=O)Nc1ncc(C)s1)C[C@@]2(O)C#N (stereo partly drawn) [Compound 23, 3-((13S,15R,17S)-17-cyano-17-hydroxy-3-methoxy-13-methyl-7,8,9,11,12,13,14,15,16,17-decahydro-6H-cyclopenta[a]phenanthren-15-yl)-N-(5-methylthiazol-2-yl)propanamide]	82	3	–	–
Cc1cnc(NC(=O)CC[C@@H]2C[C@@](O)(CC#N)[C@@]3(C)CCC4c5ccc(O)cc5CCC4C23)s1 (stereo partly drawn) [Compound 24, 3-((13S,15R,17R)-17-(cyanomethyl)-3,17-dihydroxy-13-methyl-7,8,9,11,12,13,14,15,16,17-decahydro-6H-cyclopenta[a]phenanthren-15-yl)-N-(5-methylthiazol-2-yl)propanamide]	51	4	–	–
Cc1cnc(NC(=O)CC[C@@H]2C[C@H](O)[C@@]3(C)CCC4c5cc(Br)c(O)c(Br)c5CCC4C23)s1 (stereo partly drawn) [Compound 28, 3-((13S,15R,17S)-2,4-dibromo-3,17-dihydroxy-13-methyl-7,8,9,11,12,13,14,15,16,17-decahydro-6H-cyclopenta[a]phenanthren-15-yl)-N-(5-methylthiazol-2-yl)propanamide]	91	15	–	–
CO[C@H]1C[C@@H](CCC(=O)Nc2ncc(C)s2)C2C3CCc4c(cc(Br)c(O)c4Br)C3CC[C@@]21C (stereo partly drawn) [Compound 29, 3-((13S,15R,17S)-2,4-dibromo-3-hydroxy-17-methoxy-13-methyl-7,8,9,11,12,13,14,15,16,17-decahydro-6H-cyclopenta[a]phenanthren-15-yl)-N-(5-methylthiazol-2-yl)propanamide]	67	3	–	–
Cc1cnc(NC(=O)CC[C@@H]2C[C@@](O)(CC#N)[C@@]3(C)CCC4c5cc(Br)c(O)c(Br)c5CCC4C23)s1 (stereo partly drawn) [Compound 30, 3-((13S,15R,17R)-2,4-dibromo-17-(cyanomethyl)-3,17-dihydroxy-13-methyl-7,8,9,11,12,13,14,15,16,17-decahydro-6H-cyclopenta[a]phenanthren-15-yl)-N-(5-methylthiazol-2-yl)propanamide]	52	7	–	–
CC(=O)O[C@H]1C[C@@H](CCC(=O)Nc2ncc(C)s2)C2C3CCc4cc(O)ccc4C3CC[C@@]21C (stereo partly drawn) [Compound 36]	64	3	–	–
Cc1cnc(NC(=O)CC[C@@H]2C[C@H](OC(=O)CCC(=O)O)[C@@]3(C)CCC4c5ccc(O)cc5CCC4C23)s1 (stereo partly drawn) [Compound 43, Succinic acid mono-{(13S,15R,17S)-3-hydroxy-13-methyl-15-[2-(5-methylthiazol-2-ylcarbamoyl)-ethyl]-17-oxo-7,8,9,11,12,13,14,15,16,17-decahydro-6H-cyclopenta[a]phenanthren-17-yl}ester]	97	1	–	–
Cc1cnc(NC(=O)CC[C@@H]2C[C@H](OC(=O)CCC(=O)O)[C@@]3(C)CCC4c5ccc(O)cc5CCC4C23)s1 (stereo partly drawn) [Compound 44, sodium salt]	–	–	94	2
COc1ccc2c(c1)CCC1C2CC[C@@]2(C)C1[C@H](CCC(=O)Nc1ncc(C)s1)C[C@@H]2OP(=O)(O)O (stereo partly drawn) [Compound 46, Phosphoric acid mono-{(13S,15R,17S)-3-methoxy-13-methyl-15-[2-(5-methylthiazol-2-ylcarbamoyl)-ethyl]-17-oxo-7,8,9,11,12,13,14,15,16,17-decahydro-6H-cyclopenta[a]phenanthren-17-yl}ester]	84	1	–	–
Cc1cnc(NC(=O)CC[C@@H]2C[C@H](OP(=O)(O)O)[C@@]3(C)CCC4c5ccc(O)cc5CCC4C23)s1 (stereo partly drawn) [Compound 60]	74	0	–	–
Cc1cnc(NC(=O)CC[C@@H]2CC(O)[C@@]3(C)CCC4c5ccccc5CCC4C23)s1 (stereo partly drawn) [Compound 67, 3-((13S,15R)-17-Hydroxy13-methyl-7,8,9,11,12,13,14,15,16,17-decahydro-6H-cyclopenta[a]phenanthren-15-yl)-N-(5-methylthiazol-2-yl)propanamide]	74	30	–	–
